Measured values taken from ChEMBL document CHEMBL6178021, “Optimization of Tambjamines Active against Multiple Stages of Malaria Parasites” (J Med Chem, 2025).
Converted amounts (≈) assume the structure as drawn.

Experiments:
[1] = tested on: Plasmodium yoelii; assay: Antimalarial activity against erythrocytic Plasmodium yoelii MRA-428 infected in CF1 mouse assessed as reduction in parasitemia at 25 mg/kg, po once daily for 4 days measured on day 5; assay type: functional; set-up: scale not given: the % may be the effect or the level left; conditions: time 4 day
[2] = in vitro; conditions: human, liver microsomes
[3] = tested on: Plasmodium falciparum; assay: microbe, parasite or virus in culture; conditions: D6, 72 h
Description: Antiplasmodial activity against asexual blood-stage Plasmodium falciparum D6 using 2% haematocrit and 0.2% parasitemia assessed as reduction in fluorescence measured after 72 hrs by Malaria SYBR Green I-based Fluorescence (MSF) assay

[4] = tested on: MDR1 (human); assay: Apparent permeability across apical to basolateral side in MDCK transfected with human MDR1 cells incubated for 1 hr by LC-MS analysis; conditions: dog, MDCK-MDR1
[5] = tested on: MDR1 (human); assay: Apparent permeability across basolateral to apical side in MDCK transfected with human MDR1 cells incubated for 1 hr by LC-MS analysis; conditions: dog, MDCK-MDR1
[6] = tested on: HepG2; assay: Cytotoxicity against human HepG2 cells assessed as cell viability measured after 48 hrs by MTT assay; assay type: toxicity, cell-based; conditions: hepg2
[7] = in vitro; conditions: mouse, liver microsomes
[8] = tested on: Plasmodium yoelii; assay: Antimalarial activity against erythrocytic Plasmodium yoelii MRA-428 infected in CF1 mouse assessed as cured mouse at 25 mg/kg, po once daily for 4 days measured on day 28 day; assay type: functional, organism-based; conditions: time 4.0 day
[9] = tested on: Plasmodium yoelii; assay: Antimalarial activity against erythrocytic Plasmodium yoelii MRA-428 infected in CF1 mouse assessed as reduction in parasitemia at 50 mg/kg, po once daily for 4 days measured on day 5; assay type: functional; set-up: scale not given: the % may be the effect or the level left; conditions: time 4 day
[10] = tested on: Plasmodium yoelii; assay: Antimalarial activity against erythrocytic Plasmodium yoelii MRA-428 infected in CF1 mouse assessed as cured mouse at 50 mg/kg, po once daily for 4 days measured on day 28 day; assay type: functional, organism-based; conditions: time 4.0 day
[11] = tested on: Plasmodium falciparum; assay: microbe, parasite or virus in culture; conditions: Dd2, 72 h
Description: Antiplasmodial activity against asexual blood-stage Plasmodium falciparum Dd2 using 2% haematocrit and 0.2% parasitemia assessed as reduction in fluorescence measured after 72 hrs by Malaria SYBR Green I-based Fluorescence (MSF) assay

[12] = Metabolic stability in human liver microsomes assessed as half life measured up to 60 mins by LC/MS analysis; assay type: ADME, Microsome
[13] = tested on: MDR1 (human); assay: Efflux ratio, ratio of apparent permeability across apical to basolateral side over basolateral to apical side in MDCK transfected with human MDR1 cells incubated for 1 hr by LC-MS analysis; conditions: dog
[14] = tested on: Plasmodium yoelii; assay: Antimalarial activity against erythrocytic Plasmodium yoelii MRA-428 infected in CF1 mouse assessed as reduction in parasitemia at 10 mg/kg, po once daily for 4 days measured on day 5; assay type: functional; set-up: scale not given: the % may be the effect or the level left; conditions: time 4 day
[15] = tested on: Plasmodium falciparum; assay: Antiplasmodial activity against asexual blood-stage Plasmodium falciparum Tm90-C2B using 2% haematocrit and 0.2% parasitemia assessed as reduction in fluorescence measured after 72 hrs by Malaria SYBR Green I-based Fluorescence (MSF) assay; assay type: functional, organism-based
[16] = Solubility of the compound in potassium phosphate buffer at pH 7.4 by UV-vis spectroscopy; conditions: buffer
[17] = in vitro; conditions: human
Description: Selectivity index, ratio of IC50 for cytotoxicity against human HepG2 cells to IC50 for antiplasmodial activity against asexual blood-stage Plasmodium falciparum D6

[18] = Metabolic stability in mouse liver microsomes assessed as half life measured up to 60 mins by LC/MS analysis; assay type: ADME, Microsome
[19] = tested on: Plasmodium yoelii; assay: Antimalarial activity against erythrocytic Plasmodium yoelii MRA-428 infected in CF1 mouse assessed as reduction in parasitemia at 80 mg/kg, po once daily for 4 days measured on day 5; assay type: functional; set-up: scale not given: the % may be the effect or the level left; conditions: time 4 day
[20] = tested on: Plasmodium yoelii; assay: Antimalarial activity against erythrocytic Plasmodium yoelii MRA-428 infected in CF1 mouse assessed as cured mouse at 80 mg/kg, po once daily for 4 days measured on day 28 day; assay type: functional, organism-based; conditions: time 4.0 day

| efflux ratio at 1 h [13] | Structure (SMILES) | Activity [1] [%] | microsomal CLint at 1 h [2] [µL/min/mg] | IC50 [3] [nM] | Papp A→B at 1 h [4] [×10⁻⁶ cm/s] | Papp B→A at 1 h [5] [×10⁻⁶ cm/s] | IC50 [6] [nM] | microsomal CLint at 1 h [7] [µL/min/mg] | Activity [8] | Activity [9] [%] | Activity [10] | IC50 [11] [nM] | half-life [12] [min] | Activity [14] [%] | IC50 [15] [nM] | solubility [16] [µM] | selectivity ratio [17] | half-life [18] [min] | Activity [19] [%] | Activity [20] |
| --- | --- | --- | --- | --- | --- | --- | --- | --- | --- | --- | --- | --- | --- | --- | --- | --- | --- | --- | --- | --- |
| 0.71 | CCC1=C(CC)/C(=C/NC23C[C@H]4C[C@@H](C2)C[C@@H](C3)C4)N=C1c1ccc(CC)[nH]1 | 100 | 18.5 | 0.95 | 31 | 22 | 1500 | 27.5 | Not active; None Of The Mouse Cured Out Of Four Tested | 100 | Not active; None Of The Mouse Cured Out Of Four Tested | 1.16 | > 60 | 53 | 0.984 | 10.3 (≈ 3.89 µg/mL) | 1580 | 50.3 |  |  |
| 1 | CCC1=C(C)/C(=C/NC23C[C@H]4C[C@@H](C2)C[C@@H](C3)C4)N=C1c1ccc(CC)[nH]1 | 100 |  | 0.909 | 0.026 | 0.027 | 2970 |  | Not active; None Of The Mouse Cured Out Of Four Tested | 100 | Not active; None Of The Mouse Cured Out Of Four Tested | 0.348 | > 60 | 100 | 0.844 | 3.95 (≈ 1.44 µg/mL) | 3270 | > 60 |  |  |
|  | CCC1=C(C)/C(=C/NC2CCCCCC2)N=C1c1ccc(C)[nH]1 | 100 | 28.3 | 29.5 |  |  | 6120 | 8.16 | Not active; None Of The Mouse Cured Out Of Four Tested | 100 | Not active; None Of The Mouse Cured Out Of Four Tested | 18.6 | 48.9 | 55.3 | 23.4 | 25.7 (≈ 8 µg/mL) |  | > 60 | 100 | Active; Three Mouse Cured Out Of Four |
|  | CCC1=C(CC)/C(=C/NC2CCCCCCC2)N=C1c1ccc(C)[nH]1 | 100 | 20.6 | 10.6 | 0.006 | 0.066 | 3190 | 16.8 | Active; Four Mouse Cured Out Of Four |  |  | 5.75 | > 60 | 68.5 | 4.95 | < 3.125 |  | > 60 | 100 | Not active; None Of The Mouse Cured Out Of Four Tested |
| 0.093 | COC1=C(OC)/C(=C/NC23C[C@H]4C[C@@H](C2)C[C@@H](C3)C4)N=C1c1ccc[nH]1 | 100 | 78.7 |  | 0.27 | 0.025 | 4660 | 32.1 | Not active; One Mouse Cured Out Of Four | 100 | Not active; None Of The Mouse Cured Out Of Four Tested | 5.96 | 17.6 | 63.1 | 4.46 | 167 (≈ 59 µg/mL) | 789 | 43.2 |  |  |
|  | CCc1ccc(C2=N/C(=C\NC3CCCCCC3)C(C)=C2C)[nH]1 | 94.1 | 6.78 | 2.1 |  | 0.035 |  | 4.36 |  | 100 |  | 1.32 | > 60 | 42.8 | 1.55 | 93.1 (≈ 29 µg/mL) |  | > 60 | 100 | Not active; None Of The Mouse Cured Out Of Four Tested |
|  | CCC1=C(C)/C(=C/NC2CCCCCCC2)N=C1c1ccc(C)[nH]1 | 100 | 30.5 | 6.59 | 0.063 | 0.04 | 3510 | 0.47 | Not active; None Of The Mouse Cured Out Of Four Tested | 100 | Not active; None Of The Mouse Cured Out Of Four Tested | 3.43 | 45.4 | 96.5 | 4.59 | 19.9 (≈ 6.48 µg/mL) |  | > 60 | 100 | Active; Three Mouse Cured Out Of Four |
|  | CCC1=C(C)/C(=C/NC2CCCCC2)N=C1c1ccc(CC)[nH]1 | 100 | 40.4 | 33.8 | 0.46 | 0.23 | 6010 | 13.1 | Not active; None Of The Mouse Cured Out Of Four Tested | 100 | Not active; None Of The Mouse Cured Out Of Four Tested | 14.9 | 34.3 | 45.7 | 13.3 | 23 (≈ 7.16 µg/mL) |  | > 60 | 100 | Active; Four Mouse Cured Out Of Four |
| 0.43 | CCC1=C(CC)/C(=C/N[C@H]2CC[C@H](C(F)(F)F)CC2)N=C1c1ccc[nH]1 | 100 | 61.6 | 196 | 1.4 | 0.6 | 24500 | 25.9 | Not active; None Of The Mouse Cured Out Of Four Tested | 100 | Not active; None Of The Mouse Cured Out Of Four Tested | 111 | 22.5 | 95.7 | 169 | 314 (≈ 115 µg/mL) | 125 | 53.6 |  |  |
|  | CCC1=C(C)/C(=C/NC2CCCCCC2)N=C1c1ccc(CC)[nH]1 | 100 | 35.1 | 8.4 | 0.036 | 0.037 | 4230 | 22 | Not active; None Of The Mouse Cured Out Of Four Tested | 100 | Not active; None Of The Mouse Cured Out Of Four Tested | 10.8 | 39.6 | 43.8 | 7.5 | 12.5 (≈ 4.07 µg/mL) |  | > 60 | 100 | Active; Four Mouse Cured Out Of Four |
|  | CCc1ccc(C2=N/C(=C\NC3CCCCC3)C3=C2CCCC3)[nH]1 | 100 | 6.93 | 3.5 | 0.007 | 0.22 | 1190 | 5.71 | Not active; None Of The Mouse Cured Out Of Four Tested | 100 | Not active; None Of The Mouse Cured Out Of Four Tested | 1.4 | > 60 | 43.1 | 1.41 | 19.5 (≈ 6.31 µg/mL) |  | > 60 | 100 | Not active; None Of The Mouse Cured Out Of Four Tested |
|  | CCC1=C(CC)/C(=C/NC2CCCCC2)N=C1c1ccc(CC)[nH]1 | 100 | 17 | 9.03 | 0.002 | 0.091 | 5170 | 14.8 | Active; Two Mouse Cured Out Of Four | 100 | Not active; None Of The Mouse Cured Out Of Four Tested | 4.34 | > 60 | 98.9 | 7.09 | 31.3 (≈ 10.2 µg/mL) |  | > 60 | 100 | Active; Two Mouse Cured Out Of Four |
